The subject of series [1] is one carbon pool products (AMP, ADP, ATP). The series is described as follows: One carbon pool products (AMP, ADP, ATP) in lymphocytes during DHEA-mediated EGSS (FIG. 5). The following applies: DHEA 10 mg/kg daily per os 90 days ± reconstitution regimen.
The next series has as its system statin-treated cells. The following applies: cited from earlier work.
Series [2] deals with neutered mixed breed dogs. The experiment in a line: Physical symptoms / side effects of DHEA-mediated EGSS with and without reconstitution protocol (Table 1).
Text: Physical symptoms associated with DHEA-mediated EGSS-induced Nitric Oxide (NO) depletion.
In the next series the test system is phenylalanine. The experiment in a line: Plasma phenylalanine in DHEA-treated neutered dogs (FIG. 10). The following applies: DHEA-treated neutered dogs ± reconstitution protocol.
The next series concerns serotonin. The experiment in a line: Serotonin in intestinal mucosa biopsies of DHEA-treated neutered dogs (FIG. 7). In kind it is in vivo. The following applies: DHEA 10 mg/kg daily for 90 days ± supplementation.
A further series relates to BH4. On the set-up: species or system dogs. The following applies: dog, in vivo.
The next series concerns NO. The series is described as follows: Nitric oxide depletion and replenishment during DHEA-mediated EGSS. In kind it is in vivo. The following applies: animals undergoing DHEA-mediated EGSS.
A further series concerns estrogen. The series is described as follows: Fecal estrogen in neutered female dogs before and after DHEA-mediated EGSS (FIG. 2). The following applies: feces, DHEA 10 mg/kg p.o.
The next series relates to ubiquinone. The experiment in a line: Ubiquinone concentrations in buffy coat samples of DHEA-treated neutered dogs (FIG. 3). It is filed as in vivo. The protocol:
(§1) FIG. 3. […] BH4 was assayed by the method of Niederwieser, A. et. al. (J Chromatogr. 1984 May 4; 290:237-46). For IPA quantitation, preliminary in vitro studies were performed in which DHEA-treated and control HT-29SF cells were exposed to [^3H]-mevalonic acid (saponified; data not shown). Total RNA was then isolated using the guanidinium thiocyanate method, hydrolyzed to free bases and isolated on an Aminex A9 column, with UV detection, as previously described (Nyce, J et. al., Proc Natl Acad Sci USA. 1993 Apr. 1; 90(7):2960-4). Increased incorporation of [^3H]-mevalonic acid into isopentenyladenosine peaks was interpreted as reduced pools of free unlabeled IPA into which the [^3H]-IPA equilibrated with high specific activity. (See Shultz and Nyce, Cancer Research 51(24):6563-7, 1992). This was borne out in in vivo experiments in neutered dogs treated with DHEA in which buffy coat lymphocytes were extracted and IPA quantitated with UV detection using the same HPLC procedure. […] Ubiquinone concentrations were quantitated from buffy coat samples by HPLC via the method of Abe, K. et. al., (J Nutr Sci Vitaminol (Tokyo). 1978; 24(6):555-67). For ease of presentation, pretreatment values for all 3 determinations (BH4, IPA and ubiquinone) were given a value of 1, with treatment values presented as their respective fraction thereof. […]

The next series relates to IPA. The series is described as follows: IPA / isopentenylated tRNA quantitation in buffy coat lymphocytes of DHEA-treated neutered dogs (FIG. 3). In kind it is in vivo. The protocol:
as §1

A further series concerns norepinephrine. The experiment in a line: Urinary free norepinephrine in neutered dogs undergoing DHEA-mediated EGSS (FIG. 9). It is filed as in vivo. The following applies: 24 hour urine, DHEA 10 mg/kg 90 days ± reconstitution regimen. The protocol: FIG. 9. […] Urinary free norepinephrine was quantitated by the method of Mell, L D and Gustafson, A B (Clin Chem 23(3): 473-6, 1977), using a Waters HPLC system with a C18 reverse phase column and UV detector. 24 hour urine was collected from neutered male and female animals in amber glass containment vessels. To 100 ml of urine was added 1 ml of concentrated HCL as preservative. […] This treatment continued for 90 days, at which time further urine specimens were collected and assayed for norepinephrine. The data are reported as the mean±SEM. MNNor, norepinephrine levels as quantitated in neutered male dogs; FNNor, norepinephrine levels as quantitated in neutered female dogs.

Setting [3] is: animals undergoing DHEA-mediated EGSS.

Entries after “also recorded” stand apart in the source; their conditions may differ.

Experimental for estrogen: Analyses were made in serum isolated from 4 intact male and 4 neutered male dogs of mixed breed, and in 3 intact female and 4 neutered female dogs of mixed breed. All were between 12 months and 24 months of age, and between 10 and 25 kg. […] For female dogs, estrogen was measured in anestrous for intact dogs. For both intact and neutered female dogs, the feces were collected over a period of 30 days, and thereafter the estrogens were extracted and quantitated using the procedure of Hofmann and Mostl (J Reprod Fertil Suppl 57:67-70, 2001). Results are reported as mean±SEM.
Comparison of testosterone and estrogen in neutered male and female dogs, respectively, before and after DHEA-mediated EGSS. The same neutered dogs from FIG. 1 were utilized. The same methodology was utilized as in FIG. 1. Dogs were exposed to escalating doses of DHEA until normal or near normal levels of testosterone or estradiol were achieved. […] Results are reported as the mean±SEM.
Experimental for phenylalanine: Before treatment, 10-15 ml blood samples were taken from male and female neutered dogs, and plasma was collected by low speed centrifugation by the standard method. The method of Neckers, L M et. al. (Clin Chem 27(1):146-8, 1981) was used to quantitate plasma phenylalanine concentrations, with fluorometric detection (280 nm excitation, 330 nm emission), and a 10 ul injection volume.
Experimental for serotonin: The procedure of D'Souza, L and Glueck, H (Thromb Haemost. 1977 Dec. 15; 38(4):990-1001) was used to quantitate serotonin in intestinal biopsies obtained from neutered male and female dogs. Ten mg of intestinal mucosa was analyzed for each animal. […] Results are presented as percentage of values in pretreatment dogs, mean±SEM. MNSer, serotonin levels as quantitated in neutered male dogs; FNSer, serotonin levels as quantitated in female neutered dogs.

As for `Nc1nc(=O)c2c([nH]1)NCC(CNc1ccc(C(=O)N[C@@H](CCC(=O)O)C(=O)O)cc1)N2C=O` (mixture of isomers) [folinic acid], in series [1], the “one carbon pool products (purines, pyrimidines, S-adenosylmethionine; AMP, ADP, ATP)” value is recorded as “reconstitution”.

In the case of `CC(C)=CCNc1ncnc2nc[nH]c12` [Isopentenyladenine], in the series with statin-treated cells, the “activity in restoring DNA synthesis relative to mevalonate” value is “approximately 100 fold”.

`N[C@@H](Cc1ccc(O)c(O)c1)C(=O)O` [L-DOPA]: the emesis result in [2] (dogs, alternative protocol with L-DOPA, pyridoxine, ascorbate, SAMe) is “emesis in some dogs”.

`C[C@]12CC[C@H](O)CC1=CC[C@@H]1[C@@H]2CC[C@]2(C)C(=O)CC[C@@H]12` [DHEA, Dehydroepiandrosterone]: in series [2] (setting [3]), the motor incoordination entry is reported as “sometimes occurs”. Also, in series [2] (animals undergoing DHEA-mediated EGSS with or without supplementation), the lower extremity neuropathy result is “observed”. Also, the “susceptibility to infections, particularly ear and eye” value in series [2] (dogs and cats, DHEA in amounts sufficient to induce EGSS) is recorded as “have been noted”. Besides, the fluid retention result in series [2] (dogs, DHEA in amounts sufficient to induce EGSS) is recorded as “has been observed”. The “side effects of DHEA-mediated EGSS” value in [2] (doses required to induce EGSS in neutered animals) was “capable of causing many serious side effects; also recorded: auto-inflammatory-like disorder”. The vascular effects entry in series [2] (during DHEA-mediated EGSS) is “induction of vasoconstriction”. Further, the plasma phenylalanine levels result in the series with phenylalanine was “Increase”. In the series with serotonin, the serotonin level result is given as “Depletion”. In addition, the “one carbon pool products (purines, pyrimidines, S-adenosylmethionine; AMP, ADP, ATP)” value in [1] is “profoundly depleted; also recorded: Depletion”. Besides, the BH4 level result in the series on BH4 is given as “depleted”. In addition, the NO level result in the series with NO is “depleted”. Also, the estrogen level result with estrogen was “increases”. Further, in the series with ubiquinone (continuous DHEA at doses capable of inducing EGSS, with or without supplementation), the “ubiquinone levels, continuous treatment” value is listed as “decline”. Moreover, in the series with ubiquinone (short term DHEA exposure), the “ubiquinone levels, short term” value is recorded as “increased”. Besides, in the series on IPA (exogenous DHEA in amounts sufficient to induce EGSS), the IPA level entry is “becomes depleted”. The “total pools of isopentenylated tRNA” value in the series on IPA (neutered dogs treated with DHEA, buffy coat lymphocytes, HPLC UV) is recorded as “found to be depleted”. The urinary norepinephrine entry in the series on norepinephrine is “Depletion”.

Consider `O=[N+]([O-])[O-].[K+]` [potassium nitrate], for which the “symptoms associated with NO depletion” value in [2] (setting [3]) is “eliminating the symptoms”. Further, the NO level result with NO is “can replenish NO”.

(Values after US20170007620A1 (priority 2015, published 2017).)
